This is an account of results in patent US9840509B2, “Heterocyclic compounds” (CADILA HEALTHCARE LIMITED, priority 2014, dated 2017).

Data set [1] concerns the target T1, recombinant purified human BTK (Homo sapiens, UniProt Q06187).
T1 construct: purchased SignalChem, USA
Briefly: In vitro BTK kinase assay on ADP Glo platform. Format: biochemical. Conditions: 2 hr room temperature, read-out: In-vitro BTK inhibitory activity: IC50. The method, boiled down: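 Recombinant human BTK (3 ng/reaction) with compound dilutions in Tris pH 7.5, MgCl2/MnCl2, BSA, DTT; started with 50 µM ATP (final) and polyGln4Tyr1 substrate, 2 h at room temperature. ADP formed detected by ADP-Glo luminescence; IC50 by nonlinear fit versus uninhibited enzyme as 100%.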
For orientation: In ADP-Glo the light output rises with the ADP produced.

The next data set has as its target T2, CYP 1A2 (Homo sapiens, UniProt P05177).
T2 construct: from tissue; host or cells: human liver microsomes
T2 sequence (P05177 1-516): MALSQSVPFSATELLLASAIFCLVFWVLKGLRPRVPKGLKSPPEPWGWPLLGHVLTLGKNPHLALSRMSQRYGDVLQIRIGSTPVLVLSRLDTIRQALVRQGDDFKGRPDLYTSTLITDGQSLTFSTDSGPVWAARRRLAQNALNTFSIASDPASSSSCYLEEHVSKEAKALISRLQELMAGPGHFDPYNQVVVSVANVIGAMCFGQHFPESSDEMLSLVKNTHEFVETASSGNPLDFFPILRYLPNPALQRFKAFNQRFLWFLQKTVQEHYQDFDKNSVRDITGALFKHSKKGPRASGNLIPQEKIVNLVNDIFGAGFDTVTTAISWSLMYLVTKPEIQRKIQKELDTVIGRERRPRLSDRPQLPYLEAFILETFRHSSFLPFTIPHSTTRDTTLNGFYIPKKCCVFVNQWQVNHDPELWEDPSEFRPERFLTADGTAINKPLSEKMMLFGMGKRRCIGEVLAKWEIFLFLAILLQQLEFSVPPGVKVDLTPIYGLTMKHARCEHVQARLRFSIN
Briefly: CYP inhibition in human liver microsomes, 1A2. Format: in vitro ADME. The note with it: pH 7.4, @ 10 μM concn. The method, boiled down:
(§1)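 Human liver microsomes in 100 mM phosphate pH 7.4 with CYP-specific probe substrate were incubated with test compound at […] and 10 μM, started with 1 mM NADPH at 37° C. Reactions were stopped with acetonitrile, and marker-reaction metabolites were quantified by LC-MS/MS. Final solvent was ≤0.2%.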

A further data set has as its target T3, CYP 2C9 (Homo sapiens, UniProt P11712).
T3 construct: from tissue; host or cells: human liver microsomes
Put plainly: CYP inhibition in human liver microsomes, 2C9. Conditions: pH 7.4, @ 10 μM concn. Format: in vitro ADME. The method, boiled down:
as §1
In general terms: Liver microsomes are vesicles of endoplasmic reticulum, rich in cytochrome P450 enzymes.

The target in the next data set is T4, CYP 2C19 (Homo sapiens, UniProt P33261).
T4 construct: from tissue; host or cells: human liver microsomes
T4 sequence (P33261 whole entry): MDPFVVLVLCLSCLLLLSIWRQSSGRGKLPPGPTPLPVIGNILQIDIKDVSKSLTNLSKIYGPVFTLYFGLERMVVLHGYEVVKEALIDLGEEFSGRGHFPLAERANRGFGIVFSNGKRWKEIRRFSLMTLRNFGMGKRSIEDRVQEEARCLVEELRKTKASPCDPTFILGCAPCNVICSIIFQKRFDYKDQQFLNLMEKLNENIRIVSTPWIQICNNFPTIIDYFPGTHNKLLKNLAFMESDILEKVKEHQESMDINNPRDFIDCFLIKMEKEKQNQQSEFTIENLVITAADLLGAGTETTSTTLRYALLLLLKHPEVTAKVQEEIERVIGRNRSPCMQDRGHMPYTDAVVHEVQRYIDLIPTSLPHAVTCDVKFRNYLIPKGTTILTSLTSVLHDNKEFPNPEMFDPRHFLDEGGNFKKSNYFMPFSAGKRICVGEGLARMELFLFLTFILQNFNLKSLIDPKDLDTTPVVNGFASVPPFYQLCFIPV
Briefly: CYP inhibition in human liver microsomes, 2C19. Conditions: pH 7.4, @ 10 μM concn. Format: in vitro ADME. The essentials:
as §1

For the next data set, the target named is T5, CYP 2D6 (Homo sapiens, UniProt P10635).
T5 construct: from tissue; host or cells: human liver microsomes
T5 sequence (P10635 whole entry): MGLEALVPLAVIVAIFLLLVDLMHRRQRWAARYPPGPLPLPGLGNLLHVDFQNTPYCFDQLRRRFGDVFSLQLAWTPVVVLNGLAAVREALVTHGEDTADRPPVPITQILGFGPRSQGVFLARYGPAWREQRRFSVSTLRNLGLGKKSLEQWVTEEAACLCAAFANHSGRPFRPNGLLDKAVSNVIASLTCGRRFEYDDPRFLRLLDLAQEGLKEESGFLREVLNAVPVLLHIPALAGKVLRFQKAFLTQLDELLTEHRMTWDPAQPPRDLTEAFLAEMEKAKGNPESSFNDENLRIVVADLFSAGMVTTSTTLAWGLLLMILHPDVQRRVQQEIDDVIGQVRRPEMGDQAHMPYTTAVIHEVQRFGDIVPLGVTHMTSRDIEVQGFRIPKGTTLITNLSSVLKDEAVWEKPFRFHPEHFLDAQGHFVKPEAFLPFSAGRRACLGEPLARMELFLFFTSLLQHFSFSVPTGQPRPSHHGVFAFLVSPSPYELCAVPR
Put plainly: CYP inhibition in human liver microsomes, 2D6. Format: in vitro ADME. The note with it: pH 7.4, @ 10 μM concn. The essentials: as §1

The target of a further data set is T6, CYP 3A4 (Homo sapiens, UniProt P08684).
T6 construct: from tissue; host or cells: human liver microsomes
T6 sequence (P08684 whole entry): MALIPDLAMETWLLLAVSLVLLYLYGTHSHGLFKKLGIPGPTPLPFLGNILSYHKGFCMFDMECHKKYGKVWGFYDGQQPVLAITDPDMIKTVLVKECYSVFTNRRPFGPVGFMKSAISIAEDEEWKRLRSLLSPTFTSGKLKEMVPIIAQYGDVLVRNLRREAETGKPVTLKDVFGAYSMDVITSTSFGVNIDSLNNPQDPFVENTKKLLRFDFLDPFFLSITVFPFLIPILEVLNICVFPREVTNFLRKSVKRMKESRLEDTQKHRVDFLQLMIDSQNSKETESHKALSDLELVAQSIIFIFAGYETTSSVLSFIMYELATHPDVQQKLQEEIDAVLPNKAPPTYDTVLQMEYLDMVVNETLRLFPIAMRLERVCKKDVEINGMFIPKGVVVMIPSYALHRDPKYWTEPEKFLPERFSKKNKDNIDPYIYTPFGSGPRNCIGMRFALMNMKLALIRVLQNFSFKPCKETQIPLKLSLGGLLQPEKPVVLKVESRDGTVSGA
Put plainly: CYP inhibition in human liver microsomes, 3A4. Format: in vitro ADME. Conditions: pH 7.4, @ 10 μM concn. The method, boiled down:
as §1

A further data set concerns TMD-8 cells. Briefly: Diffused large B cell lymphoma xenografts using TMD-8 cell line. Format: in vivo, Female SCID mice. The note with it: Dose: 10 mpk, po, SCID mice, Mean ± SD, n = 8. On the procedure: All the animal experiments were carried out in female rats and mice, bred in-house. Animals were housed in groups of 6 animals per cage, for a week, in order to habituate them to vivarium conditions (25±4° C., 60-65% relative humidity, 12: 12 h light: dark cycle, with lights on at 7.30 am). All the animal experiments were carried out according to the internationally valid guidelines following approval by the ‘Zydus Research Center animal ethical committee’.
Diffused Large B Cell Lymphoma Xenografts Using TMD-8 Cell Line
Female SCID mice were inoculated sc with 10×10^6 TMD-8 cells in 0.1 mL of PBS to the right flank. Animals were observed twice weekly for occurrence of tumor. Once the tumors became palpable (around 100 mm^3) around 14 days after injection, treatment was initiated via oral route. Tumor volume was determined every alternate day using digital calipers and the tumor volume was calculated using the formula: [length/2]×[width^2]. Body weights of the animals were also recorded 3 times a week as a measure of treatment related side effect. Treatment was continued for two more weeks and inhibition of tumor volume compared to vehicle control was considered as efficacy endpoint.

A value given as a limit tells only on which side of the number the result lay.

T3 sequence (P11712 whole entry): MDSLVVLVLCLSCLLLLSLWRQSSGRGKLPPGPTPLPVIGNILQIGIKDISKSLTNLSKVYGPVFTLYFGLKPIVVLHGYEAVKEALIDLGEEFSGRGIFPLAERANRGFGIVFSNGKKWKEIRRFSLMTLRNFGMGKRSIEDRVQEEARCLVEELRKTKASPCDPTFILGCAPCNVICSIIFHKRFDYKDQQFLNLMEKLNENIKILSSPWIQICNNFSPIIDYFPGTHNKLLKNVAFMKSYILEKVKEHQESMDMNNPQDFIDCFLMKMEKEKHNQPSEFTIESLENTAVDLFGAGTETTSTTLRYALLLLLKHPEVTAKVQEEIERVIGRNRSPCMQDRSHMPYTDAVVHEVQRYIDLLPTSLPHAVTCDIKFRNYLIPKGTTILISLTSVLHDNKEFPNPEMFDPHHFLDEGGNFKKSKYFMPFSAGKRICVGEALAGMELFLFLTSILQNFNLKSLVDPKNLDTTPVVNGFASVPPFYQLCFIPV
T1 sequence (Q06187 whole entry): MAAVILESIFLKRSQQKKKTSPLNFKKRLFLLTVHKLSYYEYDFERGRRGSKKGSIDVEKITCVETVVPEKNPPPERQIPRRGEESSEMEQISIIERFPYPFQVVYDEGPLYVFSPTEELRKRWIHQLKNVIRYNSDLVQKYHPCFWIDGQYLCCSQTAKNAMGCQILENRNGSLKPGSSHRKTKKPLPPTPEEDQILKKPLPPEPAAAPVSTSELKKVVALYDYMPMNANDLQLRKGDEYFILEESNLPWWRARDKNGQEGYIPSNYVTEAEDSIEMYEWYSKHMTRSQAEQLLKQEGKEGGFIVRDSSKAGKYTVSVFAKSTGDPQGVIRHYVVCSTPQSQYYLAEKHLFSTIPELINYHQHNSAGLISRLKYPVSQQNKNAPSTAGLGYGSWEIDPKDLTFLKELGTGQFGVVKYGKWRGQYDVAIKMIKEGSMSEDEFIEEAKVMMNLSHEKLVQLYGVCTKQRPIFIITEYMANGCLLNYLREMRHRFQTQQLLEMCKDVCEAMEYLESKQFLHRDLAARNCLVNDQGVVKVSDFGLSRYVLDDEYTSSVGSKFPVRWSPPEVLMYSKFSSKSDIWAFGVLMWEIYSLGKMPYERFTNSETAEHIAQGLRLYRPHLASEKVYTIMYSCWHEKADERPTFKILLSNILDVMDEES

For `C=CC(=O)N1CC2CC(n3nc(-c4ccc(C(=O)N(C)c5cc(C)ccn5)cc4)c4c(N)ncnc43)CC2C1` (centres unmarked) [Compound 54, 4-(1-(2-acryloyloctahydrocyclopenta[c]pyrrol-5-yl)-4-amino-1H-pyrazolo[3,4-d]pyrimidin-3-yl)-N-methyl-N-(4-methylpyridin-2-yl)benzamide], in data set [1], the IC50 came to 0.1 nM. Besides, the inhibition at 10 μM on CYP 1A2, on CYP 2C9, on CYP 2C19, against CYP 2D6 and at CYP 3A4 was below 50% each time. Further, the “% Inhibition in tumor volume, Day-16, in TMD-8 Xenografts Model” value (from here on “% Inhibition in tumor volume”) in the data set with TMD-8 cells worked out at 92.1 ± 13.1%.

For `C=CC(=O)N1CC2CC(n3nc(-c4ccc(NC(=O)c5ccccn5)cc4)c4c(N)ncnc43)CC2C1` (centres unmarked) [Compound 32, N-(4-(1-(2-acryloyloctahydrocyclopenta[c]pyrrol-5-yl)-4-amino-1H-pyrazolo[3,4-d]pyrimidin-3-yl)phenyl)picolinamide], in data set [1], the IC50 amounted to 4 nM. In addition, the inhibition at 10 μM was below 50% against CYP 1A2; below 50% on CYP 2C9; below 50% against CYP 2C19; below 50% on CYP 2D6; above 50% against CYP 3A4. Further, in the data set with TMD-8 cells, the “% Inhibition in tumor volume” value was 56.1 ± 8.2%.

Take `C=CC(=O)N1CC2CC(n3nc(-c4ccc(C(=O)Nc5cc(C)ccn5)cn4)c4c(N)ncnc43)CC2C1` (centres unmarked) [Compound 42, 6-(1-(2-acryloyloctahydrocyclopenta[c]pyrrol-5-yl)-4-amino-1H-pyrazolo[3,4-d]pyrimidin-3-yl)-N-(4-methylpyridin-2-yl)nicotinamide]: in data set [1], the IC50 was found to be 0.1 nM. Moreover, the inhibition at 10 μM against CYP 1A2, against CYP 2C9, against CYP 2C19, at CYP 2D6 and on CYP 3A4 was below 50% in each case. For the same compound, the “% Inhibition in tumor volume” value in the data set with TMD-8 cells turned out to be 62.2 ± 8.8%.

Turning to `C=CC(=O)N1CC2CC(N3C(=O)N(c4ccc(Oc5ccccc5)cc4)C4C(N)=NC=NC43)CC2C1` (centres unmarked) [Compound 25, 9-(2-acryloyloctahydrocyclopenta[c]pyrrol-5-yl)-6-amino-7-(4-phenoxyphenyl)-5,7-dihydro-4H-purin-8(9H)-one], the IC50 in data set [1] is 5 nM. Moreover, the inhibition at 10 μM at CYP 1A2, at CYP 2C9, against CYP 2C19, against CYP 2D6 and on CYP 3A4 was below 50% each time. In addition, the “% Inhibition in tumor volume” value in the data set with TMD-8 cells is listed as 50.2 ± 10.1%.

On to `C=CC(=O)N1CC2CC(n3nc(-c4ccc(-c5nnc(-c6cnccn6)s5)cc4)c4c(N)ncnc43)CC2C1` (centres unmarked) [Compound 46, 1-(5-(4-amino-3-(4-(5-(pyrazin-2-yl)-1,3,4-thiadiazol-2-yl)phenyl)-1H-pyrazolo[3,4-d]pyrimidin-1-yl)hexahydrocyclopenta[c]pyrrol-2(1H)-yl)prop-2-en-1-one], for which the IC50 in data set [1] is 1 nM. The inhibition at 10 μM against CYP 1A2, against CYP 2C9, against CYP 2C19, at CYP 2D6 and on CYP 3A4 was below 50% throughout. Also, the “% Inhibition in tumor volume” value in the data set with TMD-8 cells came out at 54.3 ± 9.1%.

For orientation: IC50 means the concentration at which inhibition is half-maximal. Usually inhibition stands for the drop in the measured response relative to a control, in per cent.
